From BindingDB's records for doi:10.1016/j.bmcl.2018.06.027 (Chinese Academy of Science, 2018) come the findings set out here.

Each structure is given as a SMILES string.

The nature of this assay: Inhibition of HIV1 3B protease infected in human MT4 cells assessed as protection from virus induced cytopathogenicity measured after 5 days post infection by MTT assay.

For the compound `CC(C)[C@H](NC(=O)N(C)Cc1c[se]c(-c2ccccc2)n1)C(=O)N[C@@H](Cc1ccccc1)C[C@H](O)[C@H](Cc1ccccc1)NC(=O)OCc1cncs1`, the concentration giving a half-maximal response (EC50) was 170 nM.
`CC(C)c1nc(CN(C)C(=O)N[C@H](C(=O)N[C@@H](Cc2ccccc2)C[C@H](O)[C@H](Cc2ccccc2)NC(=O)OCc2cncs2)C(C)C)c[se]1`: the 50% effective concentration (EC50) worked out at 550 nM.
